Experimental data taken from US11166940B2, “Treatment of cardiac disorders by blocking SK4 potassium channel” (Ramot at Tel-Aviv University Ltd., priority 2016, dated 2021).
“And” between values parts separate entries of the source, which are not always exact repeats. Equal entries are not always repeated.

What was measured:
SAN cells = assay: Spontaneous APs / pacing rate of isolated SAN cells from WT mice (patch clamp); type: cell-based, mouse; conditions: 2 μM clotrimazole, current clamp; reversible during washout
Experimental: WT and CASQ2 D307H KI mice were anesthetized with isofluorane and sacrificed by cervical dislocation. The heart was rapidly removed and transferred into Tyrode solution containing heparin. […] The area was cleaned, cut into small strips and washed into a Low Calcium Solution, containing (in mM): 140 NaCl, 5.4 KCl, 0.5 MgCl2, 1.2 KH2PO4, 5 HEPES-NaOH, 50 taurine, 5.5 glucose (pH 6.9). The osmolarity was adjusted if needed to 315 mOsm.
The same solution, supplemented with 1 mg/ml albumin, 200 μM CaCl2, collagenase Type I (Worthington) or liberase TH (Roche), protease (Sigma) and elastase (Sigma) was used for enzymatic digestion as previously described [See, Mesirca, P., et al. Nat Commun 5, 4664 (2014)]. In this step, the tissue was gently resuspended with a polished Pasteur pipette in this solution for 9-13 minutes at 37° C. SAN samples were then washed three times in a modified “Kraftbrühe” solution, containing (in mM): 70 glutamic acid, 80 KOH, 20 KCl, 10 γ-Hydroxybutyric acid sodium salt, 10 KH2PO4, 10 HEPES-KOH, 10 taurine, 1 mg/ml albumin, 0.1 EGTA-KOH (pH 7.2). The same solution was used to re-suspend the single cells with a pipet by vigorous up and down, between 3 to 5 minutes at 37° C. Cells were then gradually exposed to increasing concentrations of calcium, following a “Ca^2+ readaptation” protocol [Mesirca et al., 2014, supra]. Experiments were performed the same day at 33° C.
In all experiments, the coverslips were perfused at 33° C. with an external solution containing (in mM): 140 NaCl, 4 KCl, 11 Glucose, 1.2 MgCl2, 1.8 CaCl2, 5.5 HEPES titrated to pH 7.4 with NaOH and adjusted at 320 mOsm with sucrose.
The spontaneous automaticity of isolated SAN cells was recorded under perforated-patch conditions by adding 30 μM β-escin49 to the intracellular solution containing (in mM): 130 KCl, 10 NaCl, 10 HEPES, 0.2 EGTA-KOH, 2 MgATP, 6.6 Phosphocreatine, 0.05 cAMP and 1 μM free Ca^2+ (pH 7.2). To record SK4 K+ current, a voltage ramp protocol was applied. SAN and hiPS-CMs were held at −40 mV and −20 mV, respectively to substantially inactivate voltage-gated Na^+ and Ca^2+ currents. Cells were stepped from −90 mV to +60 mV for 150 ms. Then, a cocktail (solution 1) containing (in mM) 0.3 cadmium, 0.025 ZD-7288 and 0.01 E-4031 was applied extracellularly to inhibit residual L-type and T-type voltage-gated Ca2+ currents, If and the IKr currents, respectively. […] For voltage-clamp recording of SAN cells, the intracellular solution was the same to that described above for recording spontaneous automaticity.
The spontaneous electric activity of the cell was recorded in the current clamp configuration of the patch clamp technique before (black trace) and during (violet trace) exposure to 2 μM clotrimazole.
FIG. 5E (Left) presents representative traces of spontaneous APs recorded in single SAN cell from WT mice.

WT mice = assay: In vivo telemetric ECG recording in WT (normal) mice; parameters: species or system mouse; conditions: 20 mg/kg IP
Description: (§1) Telemetric ambulatory long-term ECG recordings, analogous to Holter monitoring in humans, were obtained with implantable transmitters. […] An implantable 3.5 grams wireless radiofrequency transmitter (DSI MM USA, device weight 3.8 grams) was aseptically inserted into a subcutaneous tissue pocket in the back as described in Katz, G., et al. Heart Rhythm 7, 1676-1682 (2010) and Kurtzwald-Josefson, E., et al. Heart Rhythm 11, 1471-1479 (2014)]. Animals were allowed to recover after surgery for at least 24 hours before any experiments. Baseline electrocardiograms (ECG) were obtained 15 minutes after IP injection of the appropriate vehicle (peanut oil or peanut oil supplemented with ethanol 1%). […] Telemetered ECG tracings were obtained in conscious mice at rest for one minute and during peak exercise (i.e. the first minute of recovery). In the treadmill exercise, mice were forced to exercise on a rodent treadmill; gradually increasing the speed up to a maximum of 15 m/minute. Ventricular tachycardia (VT) was defined as four or more consecutive ventricular beats. If this phenotype was consecutively observed for more than 15 seconds, it was defined as “sustained” ventricular tachycardia (SVT). Shorter VTs were characterized as “non-sustained” (NSVT). All other ventricular arrhythmias, such as premature beats, ventricular bigeminy, couplets and triplets were all defined as ventricular premature contractions (VPCs).
(§2) For this, a heart telemetry device was implanted in norma mice for continuous ECG recording at rest and during treadmill exercise. For each session, continuous ECG recording was performed with the same animals receiving first intraperitoneal (IP) injection of vehicle (peanut oil) and then 20 mg/kg clotrimazole.
as §2, with “A” for “For this, a”, “WT, CASQ2-D307H KI and CASQ2 KO” for “norma”, “the SK4 channel blocker.” for “20 mg/kg clotrimazole.”

CASQ2-D307H KI mice = assay: In vivo telemetric ECG recording in CASQ2-D307H KI mice; parameters: species or system mouse; conditions: 20 mg/kg IP; for number of mice, most severe ECG form: NSVT / number of mice, most severe ECG form: Normal (sinusal rhythm) / number of mice, most severe ECG form: SVT / number of mice, most severe ECG form: VPC: n=5 Clotrimazole, n=12 TRAM-34
Description: as §1
as §2, with “A” for “For this, a”, “WT, CASQ2-D307H KI and CASQ2 KO” for “norma”, “the SK4 channel blocker.” for “20 mg/kg clotrimazole.”
(§3) The types of arrhythmic features were classified following their seriousness: sinusal rhythm (normal), ventricular premature contractions (VPC), non-sustained ventricular tachycardia (NSVT) and sustained ventricular tachycardia (SVT). For each mouse was considered the most severe form of arrhythmia recorded under ECG.

CASQ2 KO mice = assay: In vivo telemetric ECG recording in CASQ2 KO mice; parameters: species or system mouse; conditions: 20 mg/kg IP; for number of mice, most severe ECG form: NSVT / number of mice, most severe ECG form: Normal (sinusal rhythm) / number of mice, most severe ECG form: SVT / number of mice, most severe ECG form: VPC: n=6
Description: as §1
as §2, with “A” for “For this, a”, “WT, CASQ2-D307H KI and CASQ2 KO” for “norma”, “the SK4 channel blocker.” for “20 mg/kg clotrimazole.”
as §3

SK4 current = biological target: T1, SK4 current (Homo sapiens, UniProt O15554); conditions: 2 μM clotrimazole added to solution 1; voltage ramp −90 to +40 mV; cited from earlier work
T1 construct: electrophysiological characterization of the SK4 current in a single cardiac hESC-CM; endogenous in cells; host or cells: hESC-CMs (human embryonic stem cell-derived cardiomyocytes)
T1 sequence (O15554 whole entry): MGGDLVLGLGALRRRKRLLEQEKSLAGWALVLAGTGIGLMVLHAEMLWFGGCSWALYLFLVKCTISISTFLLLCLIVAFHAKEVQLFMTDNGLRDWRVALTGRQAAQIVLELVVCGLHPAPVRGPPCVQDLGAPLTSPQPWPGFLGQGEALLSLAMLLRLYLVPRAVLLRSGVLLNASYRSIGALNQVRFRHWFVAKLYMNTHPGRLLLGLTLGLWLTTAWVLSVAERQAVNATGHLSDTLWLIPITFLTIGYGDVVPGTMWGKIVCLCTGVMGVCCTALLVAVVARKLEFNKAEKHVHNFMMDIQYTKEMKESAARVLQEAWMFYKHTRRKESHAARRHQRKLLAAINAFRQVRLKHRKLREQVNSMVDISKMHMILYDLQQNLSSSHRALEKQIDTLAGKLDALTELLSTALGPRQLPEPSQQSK

hESC-CMs = conditions: 2 μM clotrimazole, current clamp; cited from earlier work

For `Clc1ccccc1C(c1ccccc1)(c1ccccc1)n1ccnc1` [Clotrimazole], the firing rate (SAN cells) was “strongly decreases the firing rate of the cells”, the “prolongation of the PR interval” value (WT mice; WT mice at rest) was 27% and the “reduction of resting heart rate” value (WT mice; WT mice at rest, vs vehicle in same animal) was 16.1±6.1% and 16±6%. The PR interval (WT mice; normal mice at rest, n=10 (vehicle 29.4±0.9)) was 37.0 ± 3.5 ms, the resting heart rate (WT mice; normal mice at rest, n=10 (vehicle 718±16)) was 604±43 bpm and the “sinus rate (heart rate)” value (WT mice; normal mice during treadmill exercise, n=10 (vehicle 724±18)) was 605±42 bpm. For the same compound, the PR interval (WT mice; normal mice following treadmill exercise, n=10 (vehicle 29.27±0.94), not significant) was 37.44 ± 4.03 ms, the “mice converted to normal sinus rhythm” value (CASQ2-D307H KI mice; KI mice at rest) was 3 out of 5 and the “heart rate and PR interval” value (CASQ2-D307H KI mice; KI mice, basal conditions and during treadmill exercise) was “bradycardia and PR prolongation were noticed”. The “number of mice, most severe ECG form: NSVT” value (from here on “number of mice … NSVT”) (CASQ2-D307H KI mice; KI at rest) was 0, the “number of mice, most severe ECG form: Normal (sinusal rhythm)” value (from here on “number of mice … (sinusal rhythm)”) (CASQ2-D307H KI mice; KI at rest) was 3 and the “number of mice, most severe ECG form: SVT” value (CASQ2-D307H KI mice; KI at rest) was 0. The “number of mice, most severe ECG form: VPC” value (“number of mice … VPC” for short) (CASQ2-D307H KI mice; KI at rest) was 2, the “number of mice … NSVT” value (CASQ2-D307H KI mice; KI during Exercise) was 2 and the “number of mice … (sinusal rhythm)” value (CASQ2-D307H KI mice; KI during Exercise) was 0. For the same compound, the “number of mice, most severe ECG form: SVT” value (CASQ2-D307H KI mice; KI during Exercise) was 1, the “number of mice … VPC” value (CASQ2-D307H KI mice; KI during Exercise) was 2 and the “heart rate and PR interval” value (CASQ2 KO mice; KO mice, basal conditions and during treadmill exercise) was “bradycardia and PR prolongation were noticed”. The “number of mice … NSVT” value (CASQ2 KO mice; KO at rest) was 0, the “number of mice … (sinusal rhythm)” value (CASQ2 KO mice; KO at rest) was 4 and the “number of mice, most severe ECG form: SVT” value (CASQ2 KO mice; KO at rest) was 0. For the same compound, the “number of mice … VPC” value (CASQ2 KO mice; KO at rest) was 2, the “number of mice … NSVT” value (CASQ2 KO mice; KO during exercise) was 3 and the “number of mice … (sinusal rhythm)” value (CASQ2 KO mice; KO during exercise) was 0. The “number of mice, most severe ECG form: SVT” value (CASQ2 KO mice; KO during exercise) was 1, the “number of mice … VPC” value (CASQ2 KO mice; KO during exercise) was 2 and the “clotrimazole-sensitive/SK4 current (linear voltage trace)” value (SK4 current) was “decreased the linear voltage trace in both sides”. The “duration of the action potentials (APD50)” value (hESC-CMs) was “did not significantly affect”, the firing rate (hESC-CMs) was “decreased the firing rate of the cells” and the “membrane potential (MDP) / pacing” value (hESC-CMs) was “depolarized the membrane of the cell (MDP) until a pacing arrest”.
